In ChEMBL document CHEMBL1137171, “D-piece modifications of the hemiasterlin analog HTI-286 produce potent tubulin inhibitors” (Bioorg Med Chem Lett, 2004):

Legend:
Conditions in all cases: Homo sapiens
KB = assay: Compound was tested for cytotoxicity against paclitaxel resistant KB-8-5 cell line expressing P-glycoprotein; type: functional, cell-based
KB 3-1 = assay: Compound was tested for cytotoxicity against paclitaxel sensitive KB-3-1 cell line; type: functional, cell-based
[1] = Compound was tested for cytotoxicity against paclitaxel resistant KB-V1 cell line expressing P-glycoprotein

SMILES | IC50 (KB) | IC50 (KB 3-1) | IC50 [1]
CN[C@H](C(=O)N[C@H](C(=O)N(C)[C@H](/C=C(C)/C=C(\C)C(=O)O)C(C)C)C(C)(C)C)C(C)(C)c1ccccc1 | 53 nM | 27 nM | 1580 nM
CN[C@H](C(=O)N[C@H](C(=O)N(C)[C@H](/C=C(\C)c1ccccc1)C(C)C)C(C)(C)C)C(C)(C)c1ccccc1 | > 3000 nM | > 3000 nM | > 3000 nM
CN[C@H](C(=O)N[C@H](C(=O)N(C)[C@H](/C=C(\C)C(=O)O)C(C)C)C(C)(C)C)C(C)(C)c1ccccc1 [TALTOBULIN] | 2.3 nM | 0.96 nM | 77 nM
CN[C@H](C(=O)N[C@H](C(=O)N(C)[C@H](/C=C(/C)C(=O)O)C(C)C)C(C)(C)C)C(C)(C)c1ccccc1 | 58 nM | 28 nM | 2630 nM
CN[C@H](C(=O)N[C@H](C(=O)N(C)[C@H](/C=C(\C)C(=O)N1CCC[C@@H]1C(=O)O)C(C)C)C(C)(C)C)C(C)(C)c1ccccc1 | 205 nM | 62 nM | > 3000 nM
CN[C@H](C(=O)N[C@H](C(=O)N(C)[C@H](/C=C1/C(=O)NC(=O)N1C)C(C)C)C(C)(C)C)C(C)(C)c1ccccc1 | 9.9 nM | 5.1 nM | 230 nM
CN[C@H](C(=O)N[C@H](C(=O)N(C)[C@H](/C=C(\C)C(=O)N1CCC[C@@H]1C(=O)OC)C(C)C)C(C)(C)C)C(C)(C)c1cccc(Cl)c1 | 6.2 nM | 2.5 nM | 362 nM
CN[C@H](C(=O)N[C@H](C(=O)N(C)[C@H](/C=C(\C)C(=O)N1CCC[C@@H]1C(=O)OC)C(C)C)C(C)(C)C)C(C)(C)c1cccc(C)c1 | 6.2 nM | 1.6 nM | 275 nM
CN[C@H](C(=O)N[C@H](C(=O)N(C)[C@H](/C=C(\C)C(=O)N1CCC[C@@H]1C(=O)O)C(C)C)C(C)(C)C)C(C)(C)c1cccc(C)c1 | 599 nM | 70 nM | > 3000 nM
CN[C@H](C(=O)N[C@H](C(=O)N(C)[C@H](/C=C(\C)C(=O)c1ccccc1)C(C)C)C(C)(C)C)C(C)(C)c1ccccc1 | 1330 nM | 725 nM | 1800 nM
CN[C@H](C(=O)N[C@H](C(=O)N(C)[C@H](/C=C(\C)C(O)c1ccccc1)C(C)C)C(C)(C)C)C(C)(C)c1ccccc1 (single isomer, unassigned) | 22 nM | 16 nM | 190 nM
CN[C@H](C(=O)N[C@H](C(=O)N(C)[C@H](/C=C(\C)C(C)=O)C(C)C)C(C)(C)C)C(C)(C)c1ccccc1 | 664 nM | 403 nM | 2360 nM
CN[C@H](C(=O)N[C@H](C(=O)N(C)[C@H](/C=C/c1nn[nH]n1)C(C)C)C(C)(C)C)C(C)(C)c1ccccc1 | 1820 nM | 1150 nM | > 3000 nM
CN[C@H](C(=O)N[C@H](C(=O)N(C)[C@H](/C=C(\C)C(=O)N1CCC[C@H]1C(=O)O)C(C)C)C(C)(C)C)C(C)(C)c1ccccc1 | 1580 nM | 515 nM | > 3000 nM
CN[C@H](C(=O)N[C@H](C(=O)N(C)[C@H](/C=C(\C)C(=O)N1CCCC[C@@H]1C(=O)OC)C(C)C)C(C)(C)C)C(C)(C)c1ccccc1 | 17 nM | 5.2 nM | 150 nM
CN[C@H](C(=O)N[C@H](C(=O)N(C)[C@H](/C=C(\C)C(=O)CO)C(C)C)C(C)(C)C)C(C)(C)c1ccccc1 | 68 nM | 43 nM | 1130 nM
CN[C@H](C(=O)N[C@H](C(=O)N(C)[C@H](/C=C1\NC(=O)NC1=O)C(C)C)C(C)(C)C)C(C)(C)c1ccccc1 | 1740 nM | 1070 nM | > 3000 nM
CN[C@H](C(=O)N[C@H](C(=O)N(C)[C@H](/C=C/C(=O)O)C(C)C)C(C)(C)C)C(C)(C)c1ccccc1 | 479 nM | 191 nM | > 3000 nM
CN[C@H](C(=O)N[C@H](C(=O)N(C)[C@H](/C=C(\C)C(=O)N1CC(O)C[C@@H]1C(=O)O)C(C)C)C(C)(C)C)C(C)(C)c1ccccc1 (some centres not stated) | 1850 nM | 184 nM | > 3000 nM
CN[C@H](C(=O)N[C@H](C(=O)N(C)[C@H](/C=C(\C)C(=O)N1CCC[C@@H]1C(=O)OC)C(C)C)C(C)(C)C)C(C)(C)C1CCCCC1 | 16 nM | 3.7 nM | 493 nM

SMILES | IC50 (KB) | IC50 (KB 3-1) | IC50 [1]
CN[C@H](C(=O)N[C@H](C(=O)N(C)[C@H](/C=C(\C)C(=O)N1CC(O)C[C@@H]1C(=O)OC)C(C)C)C(C)(C)C)C(C)(C)c1ccccc1 (some centres not stated) | 116 nM | 3.5 nM | > 3000 nM
CN[C@H](C(=O)N[C@H](C(=O)N(C)[C@H](/C=C(\C)C(O)c1nccs1)C(C)C)C(C)(C)C)C(C)(C)c1ccccc1 (some centres not stated) | 19 nM | 13 nM | 364 nM
CN[C@H](C(=O)N[C@H](C(=O)N(C)[C@H](C(=O)N1CCC[C@@H]1C(=O)O)C(C)C)C(C)(C)C)C(C)(C)c1ccccc1 | > 3000 nM | > 3000 nM | > 3000 nM
CN[C@H](C(=O)N[C@H](C(=O)N(C)[C@H](/C=C(\C)C(=O)N1CCC[C@@H]1C(=O)O)C(C)C)C(C)(C)C)C(C)(C)c1ccc(C)c(C)c1 | 519 nM | 74 nM | > 3000 nM
CN[C@H](C(=O)N[C@H](C(=O)N(C)[C@H](/C=C(\C)C(C)O)C(C)C)C(C)(C)C)C(C)(C)c1ccccc1 (some centres not stated) | 172 nM | 63 nM | 1460 nM
CN[C@H](C(=O)N[C@H](C(=O)N(C)[C@H](/C=C(\C)C(=O)c1nccs1)C(C)C)C(C)(C)C)C(C)(C)c1ccccc1 | 565 nM | 582 nM | 1790 nM
CN[C@H](C(=O)N[C@H](C(=O)N(C)[C@H](/C=C(\C)[C@H](O)c1ccccc1)C(C)C)C(C)(C)C)C(C)(C)c1ccccc1 | 186 nM | 124 nM | 632 nM
CN[C@H](C(=O)N[C@H](C(=O)N(C)[C@H](/C=C(\C)CO)C(C)C)C(C)(C)C)C(C)(C)c1ccccc1 | 447 nM | 454 nM | 1590 nM
CN[C@H](C(=O)N[C@H](C(=O)N(C)[C@H](/C=C(\C)C(=O)N1CCC[C@@H]1C(=O)O)C(C)C)C(C)(C)C)C(C)(C)c1cccc(Cl)c1 | 180 nM | 62 nM | > 3000 nM
CN[C@H](C(=O)N[C@H](C(=O)N(C)[C@H](/C=C(\C)C(=O)N1CC=C[C@@H]1C(=O)OC)C(C)C)C(C)(C)C)C(C)(C)c1ccccc1 | 17 nM | 3.5 nM | 272 nM
CN[C@H](C(=O)N[C@H](C(=O)N(C)[C@H](/C=C(\C)C(=O)N1CCC[C@@H]1C(=O)OC)C(C)C)C(C)(C)C)C(C)(C)c1ccc(C)c(C)c1 | 15 nM | 1.9 nM | 363 nM
CN[C@H](C(=O)N[C@H](C(=O)N(C)[C@H](/C=C(\C)C=O)C(C)C)C(C)(C)C)C(C)(C)c1ccccc1 | 447 nM | 454 nM | 1590 nM
CN[C@H](C(=O)N[C@H](C(=O)N(C)[C@H](/C=C(\C)C(=O)N1CCC[C@@H]1C(=O)OC)C(C)C)C(C)(C)C)C(C)(C)c1ccccc1 | 7.3 nM | 1.5 nM | 291 nM
CN[C@H](C(=O)N[C@H](C(=O)N(C)[C@H](/C=C(\C)C(=O)c1ncc[nH]1)C(C)C)C(C)(C)C)C(C)(C)c1ccccc1 | 1360 nM | 218 nM | > 3000 nM
CN[C@H](C(=O)N[C@H](C(=O)N(C)[C@H](C(=O)O)C(C)C)C(C)(C)C)C(C)(C)c1ccccc1 | > 3000 nM | > 3000 nM | > 3000 nM
CN[C@H](C(=O)N[C@H](C(=O)N(C)[C@H](/C=C(\C)C(=O)N1CCC[C@@H]1C(=O)NCCc1ccccc1)C(C)C)C(C)(C)C)C(C)(C)c1ccccc1 | 21 nM | 6.4 nM | 1670 nM
CN[C@H](C(=O)N[C@H](C(=O)N(C)[C@H](/C=C(\C)C(=O)N1CCC[C@H]1C(=O)OC)C(C)C)C(C)(C)C)C(C)(C)c1ccccc1 | 51 nM | 16 nM | 1100 nM
CN[C@H](C(=O)N[C@H](C(=O)N(C)[C@H](/C=C(\C)C(=O)N1CCCC[C@@H]1C(=O)O)C(C)C)C(C)(C)C)C(C)(C)c1ccccc1 | 270 nM | 64 nM | > 3000 nM
CN[C@H](C(=O)N[C@H](C(=O)N(C)[C@H](/C=C(\C)C(=O)N1CC=C[C@@H]1C(=O)O)C(C)C)C(C)(C)C)C(C)(C)c1ccccc1 | 184 nM | 58 nM | > 3000 nM
